36 compounds from BindingDB's records for doi:10.7270/Q2D798VP (Broad Institute, 2009) can be followed below.

SMILES strings stand for the structures.

In the test the target is T1, Zinc finger protein mex-5 (Caenorhabditis elegans, UniProt Q9XUB2).
T1 sequence (Q9XUB2 whole entry): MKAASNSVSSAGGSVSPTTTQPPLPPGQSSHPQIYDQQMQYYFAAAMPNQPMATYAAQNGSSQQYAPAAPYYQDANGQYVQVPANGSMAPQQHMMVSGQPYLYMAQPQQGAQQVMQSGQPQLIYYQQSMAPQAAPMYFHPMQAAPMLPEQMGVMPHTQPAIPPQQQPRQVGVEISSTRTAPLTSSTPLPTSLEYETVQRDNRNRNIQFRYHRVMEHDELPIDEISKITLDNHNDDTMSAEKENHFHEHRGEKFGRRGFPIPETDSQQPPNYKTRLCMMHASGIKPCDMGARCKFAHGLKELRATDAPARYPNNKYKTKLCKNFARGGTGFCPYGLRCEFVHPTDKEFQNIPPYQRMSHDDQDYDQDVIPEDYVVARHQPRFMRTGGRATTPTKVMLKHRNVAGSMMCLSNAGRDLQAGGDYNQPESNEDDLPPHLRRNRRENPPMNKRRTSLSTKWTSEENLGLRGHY
Kind of test: potency of MEX-5 RNA-binding blockers – biochemical, C. elegans, fluorescence polarization, dose response (AID 1960). (Fluorescence polarisation rises when a labelled molecule tumbles more slowly, as on binding a larger partner.)

The term EC50 denotes the concentration that produces a half-maximal response. Higher therefore signals a less potent agent. `COc1cccc(C=NNC(=O)c2ccc(=O)[nH]n2)c1O` [N'-[(E)-(5-methoxy-6-oxocyclohexa-2,4-dien-1-ylidene)methyl]-6-oxo-1H-pyridazine-3-carbohydrazide]: the EC50 amounted to 12.6 µM. As to `CC(=O)N=c1c(C#N)cc2c(=O)n3cccc(C)c3nc2n1CCCOC(C)C` [MLS000332846], the EC50 was determined as 229 µM. `N#CC1C(=N)Oc2ccc3ccc(O)cc3c2C1c1ccsc1` (stereo unspecified) [3-amino-9-hydroxy-1-(3-thienyl)-1H-benzo[f]chromene-2-carbonitrile] showed an EC50 of 11 µM.

The compound `CC1(C)CC(=O)C2=C(C1)OC(=N)C(C#N)C2c1ccccc1OC(=O)N1CCOCC1` (stereo unspecified) [2-(2-amino-3-cyano-7,7-dimethyl-5-oxo-5,6,7,8-tetrahydro-4H-chromen-4-yl)phenyl morpholine-4-carboxylate] registered a half-maximal effective concentration (EC50) of over 300 µM. Compound `COc1ccccc1-n1c(O)c2n(-c3ccc(C)cc3)[nH]c(C(=O)c3ccccc3)c-2c1=O` returned an EC50 of 14.3 µM.

For `Cc1ccccc1NN=C1C(=O)N(C)c2ccccc21` [MLS001203477], the EC50 is over 300 µM. The result for `CSc1nncc(C(C)N=Nc2ccccc2)n1` (stereo unspecified) [1-[3-(methylsulfanyl)-1,2,4-triazin-5-yl]ethanone phenylhydrazone] reads over 300 µM; that for `CSc1nnc(N2C(=O)C(=O)C(C(=O)c3ccco3)C2c2ccccc2)s1` (stereo unspecified) [3-(furan-2-carbonyl)-4-hydroxy-1-(5-methylsulfanyl-1,3,4-thiadiazol-2-yl)-2-phenyl-2H-pyrrol-5-one], 76.6 µM. The result for `CC(=N)C(C#N)C(=O)CSc1ncnc2ccccc12` (stereo unspecified) [(E)-3-amino-2-(2-quinazolin-4-ylsulfanylacetyl)but-2-enenitrile] reads 8.02 µM; that for `Nc1c(-c2nc3ccccc3[nH]2)c(O)cn1-c1ccc(CC(=O)O)cc1` [MLS000565528], 1.59 µM.

Take `CC1(C)c2[nH]c3ccccc3c2Cc2c(O)n(-c3ccc(F)cc3F)c(=O)n21` [MLS001065879]: the EC50 is 46.8 µM. In turn, `COc1ccc(C(=O)CC=Nc2ccc([N+](=O)[O-])cc2C)c(OC)c1` [(E)-1-(2,4-dimethoxyphenyl)-3-(2-methyl-4-nitro-anilino)prop-2-en-1-one] had an EC50 of over 300 µM. The compound `N#CC1C(=N)OC2=C(C(=O)CCC2)C1c1ccc2c(c1)OCO2` (stereo unspecified) displayed an EC50 of over 300 µM. Compound `N#CC1C(=N)OC2=C(C(=O)CC(c3ccccc3)C2)C1c1ccc2c(c1)OCO2` (stereo unspecified) displayed an EC50 of over 300 µM. The compound `CSc1nnc(N2C(=O)C(=O)C(C(=O)c3ccco3)C2c2ccc(F)cc2)s1` (stereo unspecified) [2-(4-fluorophenyl)-3-(furan-2-carbonyl)-4-hydroxy-1-(5-methylsulfanyl-1,3,4-thiadiazol-2-yl)-2H-pyrrol-5-one] had an EC50 of 82.8 µM. The result for `N#CCC(=N)C(C#N)C#N` [1,1,3-tricyano-2-amino-1-propene] reads 169 µM; that for `CN1CCC2(CC1)C(C#N)C(=N)NC(=S)C2C#N` (stereo unspecified) [SMR000211480], 8.53 µM. The compound `COc1ccc(C2C3=C(CC(C)(C)CC3=O)OC(=N)C2C#N)cc1` (stereo unspecified) [2-amino-4-(4-methoxyphenyl)-7,7-dimethyl-5-oxo-6,8-dihydro-4H-1-benzopyran-3-carbonitrile] registered an EC50 of over 300 µM. For the compound `Cc1ccc(C(=O)C2C(=O)C(=O)N(Cc3ccco3)C2c2cccc(Br)c2)o1` (stereo unspecified) [2-(3-bromophenyl)-1-(2-furanylmethyl)-4-hydroxy-3-[(5-methyl-2-furanyl)-oxomethyl]-2H-pyrrol-5-one], the EC50 was 35.6 µM. `O=C1NC(=O)N(CCc2ccc(F)cc2)C(=O)C1=CNCCCn1ccnc1` [(5E)-1-[2-(4-fluorophenyl)ethyl]-5-[(3-imidazol-1-ylpropylamino)methylene]barbituric acid] returned an EC50 of over 300 µM. For the compound `COc1ccc(N=Cc2cc3c(cc2O)OC(=N)C(C#N)C3c2ccccc2)cc1` (stereo unspecified) [(6E)-2-amino-6-[(4-methoxyanilino)methylidene]-7-oxo-4-phenyl-4H-1-benzopyran-3-carbonitrile], the 50% effective concentration (EC50) was over 300 µM. `N#CC1C(=N)OC2=C(C(=O)CCC2)C1c1ccc(OC(=O)N2CCOCC2)cc1` (stereo unspecified) [4-(2-amino-3-cyano-5-oxo-5,6,7,8-tetrahydro-4H-chromen-4-yl)phenyl morpholine-4-carboxylate] returned an EC50 of over 300 µM. The compound `O=C(Cc1nc2ccccc2n(-c2ccccc2)c1=O)c1ccccc1` [(3Z)-3-phenacylidene-1-phenyl-4H-quinoxalin-2-one] came in with an EC50 of 6.1 µM. For the compound `CC1(C)CC(=O)C2=C(C1)OC(=N)C(C#N)C2c1cccc(OC(=O)c2ccco2)c1` (stereo unspecified) [2-furancarboxylic acid [3-(2-amino-3-cyano-7,7-dimethyl-5-oxo-6,8-dihydro-4H-1-benzopyran-4-yl)phenyl] ester], the EC50 was over 300 µM.

Compound `N#CC1=C2CCOCC2C(c2cccnc2)C(C#N)(C#N)C1=N` (stereo unspecified) [6-Amino-8-pyridin-3-yl-8,8a-dihydro-1H,3H-isochromene-5,7,7-tricarbonitrile] returned an EC50 of over 300 µM.

As to `COc1ccc(C(=O)CC=Nc2ccc([N+](=O)[O-])cc2C)cc1OC` [(E)-1-(3,4-dimethoxyphenyl)-3-(2-methyl-4-nitro-anilino)prop-2-en-1-one], a half-maximal response (EC50) required 150 µM.

Regarding `CCCCCCN1C(=O)NC(=O)C(=CNCCCn2ccnc2)C1=O` [(5E)-1-hexyl-5-[[3-(1-imidazolyl)propylamino]methylidene]-1,3-diazinane-2,4,6-trione], the EC50 is over 300 µM. For the compound `CCOC(=O)c1c(NC=C2C(=O)NC(=S)NC2=O)sc(C)c1C` [ethyl 2-[[4,6-bis(oxidanylidene)-2-sulfanylidene-1,3-diazinan-5-yl]methylideneamino]-4,5-dimethyl-thiophene-3-carboxylate], the EC50 was over 300 µM. Turning to `CCN(CC)CCNC=C1C(=O)NC(=O)N(Cc2ccccc2)C1=O` [(5Z)-1-benzyl-5-[[2-(diethylamino)ethylamino]methylene]barbituric acid], the EC50 is over 300 µM. On to `CCOc1ccc(N=C(C(=C(Cl)C(Cl)Cl)[N+](=O)[O-])n2cncn2)cc1` [MLS000519210], for which the EC50 is 45.4 µM. That is a double-digit micromolar value. In turn, `CCOc1cc(C=C2C(=N)N3N=C(S(C)(=O)=O)SC3=NC2=O)ccc1OCCOc1cccc(OC)c1` [(6E)-6-[[3-ethoxy-4-[2-(3-methoxyphenoxy)ethoxy]phenyl]methylidene]-5-imino-2-methylsulfonyl-[1,3,4]thiadiazolo[3,2-a]pyrimidin-7-one] registered an EC50 of 221 µM. The compound `CCOC(=O)C1=C(C)N=c2sc(=Cc3ccc(OCC(=O)O)cc3)c(=O)n2C1c1ccc(OC)cc1OC` (stereo unspecified) [MLS001179101] registered an EC50 of 60.9 µM. This EC50 lies about 3.6-fold lower than the previous one. Next, `Cc1[nH]c2ccccc2c1/C=C1\N=C(c2ccc(F)cc2)OC1=O` [2-(4-fluorophenyl)-4-[(2-methyl-1H-indol-3-yl)methylene]-1,3-oxazol-5(4H)-one]: 5.53 µM. The result for `Cc1sc2ncnc(N=NC(C)c3ccccn3)c2c1C` (stereo unspecified) [5,6-dimethyl-N-(1-pyridin-2-ylethylideneamino)thieno[2,3-d]pyrimidin-4-amine] reads 46.7 µM; that for `CC(=O)C1C(c2ccccc2)=NC(=O)NC1c1ccc(O)c(O)c1` (stereo unspecified) [4-[3,4-bis(oxidanyl)phenyl]-5-ethanoyl-6-phenyl-3,4-dihydro-1H-pyrimidin-2-one], 43.4 µM. Next, `CC1CCC2=C(C#N)C(=N)C(C#N)(C#N)C(c3cccs3)C2C1` (stereo unspecified) [2-amino-6-methyl-4-(2-thienyl)-4a,5,6,7-tetrahydro-4H-naphthalene-1,3,3-tricarbonitrile]: 14.9 µM.
